According to ChEMBL document CHEMBL3045198, “Insecticidal Activity and Selective Toxicity of Chloronicotinyl Compounds Having Thiomethyl Groups” (J Pestic Sci, 2000):
pIC50: −log10 of the molar value. In brackets after ≈: the same amount, converted by molar mass.

What was measured:
Myzus persicae = experiment: Insecticidal activity against larvae of Myzus persicae (green peach aphid) infested eggplant petiole treated with compound solution measured after 5 days; format: functional; details: 120 h
Laodelphax striatellus [1] = experiment: Insecticidal activity against larvae of Laodelphax striatella (small brown planthopper) fed with compound solution dipped rice seedling measured after 5 days by test tube method; format: functional; details: 120 h
[2] = Displacement of [3H]alpha-bungarotoxin from nicotinic acetylcholine receptor in Apis mellifera (honey bee) head membrane
Laodelphax striatellus [3] = experiment: Insecticidal activity against adult Laodelphax striatella (small brown planthopper) at 0.0005 ug topically applied measured after 3 hr; format: functional
[4] = Acute toxicity in po dosed Mus musculus ICR (mouse) assessed as mortality measured after 14 days; format: organism-based; details: in vivo
Laodelphax striatellus [5] = experiment: Insecticidal activity against adult Laodelphax striatella (small brown planthopper) at 0.0005 ug topically applied measured after 24 hr; format: functional
Laodelphax striatellus [6] = experiment: Insecticidal activity against Laodelphax striatella (small brown planthopper) at 12.5 ppm in presence of triphenyl phosphate; format: functional
Laodelphax striatellus [7] = experiment: Insecticidal activity against Laodelphax striatella (small brown planthopper) at 3.1 ppm in presence of diethyl maleate; format: functional
Laodelphax striatellus [8] = experiment: Insecticidal activity against Laodelphax striatella (small brown planthopper) at 3.1 ppm; format: functional
Laodelphax striatellus [9] = experiment: Insecticidal activity against Laodelphax striatella (small brown planthopper) at 3.1 ppm in presence of triphenyl phosphate; format: functional
Laodelphax striatellus [10] = experiment: Insecticidal activity against Laodelphax striatella (small brown planthopper) at 12.5 ppm in presence of piperonyl butoxide; format: functional
Laodelphax striatellus [11] = experiment: Insecticidal activity against Laodelphax striatella (small brown planthopper) at 0.0005 ug topically applied measured after 72 hr; format: functional
Laodelphax striatellus [12] = experiment: Insecticidal activity against Laodelphax striatella (small brown planthopper) at 0.0005 ug topically applied measured after 48 hr; format: functional
Laodelphax striatellus [13] = experiment: Insecticidal activity against Laodelphax striatella (small brown planthopper) at 12.5 ppm in presence of diethyl maleate; format: functional
Laodelphax striatellus [14] = experiment: Insecticidal activity against Laodelphax striatella (small brown planthopper) at 12.5 ppm; format: functional
Laodelphax striatellus [15] = experiment: Insecticidal activity against Laodelphax striatella (small brown planthopper) at 3.1 ppm in presence of piperonyl butoxide; format: functional

Compound O=[N+]([O-])/C=C1\NCCN1Cc1ccc(Cl)nc1 has an LC50 (Myzus persicae) of 0.09 µg/mL (≈ 0.353 µM), an LC50 (Laodelphax striatellus [1]) of 0.3 µg/mL (≈ 1.18 µM) and a pIC50 [2] of 6.96. For the same compound, the mortality (Laodelphax striatellus [3]) was 70%, the LD50 at 336 h [4] was < 30 mg/kg and the mortality (Laodelphax striatellus [5]) was 100%.

C[Si](C)(CSC/C(=C1/NCCN1Cc1ccc(Cl)nc1)[N+](=O)[O-])c1ccccc1 gave an LC50 (Myzus persicae) of 0.25 µg/mL (≈ 0.557 µM) and an LC50 (Laodelphax striatellus [1]) of 0.1 µg/mL (≈ 0.223 µM).

Compound O=C(SC/C(=C1/NCCN1Cc1ccc(Cl)nc1)[N+](=O)[O-])c1ccccc1 has an LC50 (Myzus persicae) of 1.2 µg/mL (≈ 2.96 µM) and an LC50 (Laodelphax striatellus [1]) of 6.3 µg/mL (≈ 15.6 µM).

With CC(SC/C(=C1/NCCN1Cc1ccc(Cl)nc1)[N+](=O)[O-])c1ccc(Cl)cc1 (stereo not drawn) the LC50 (Myzus persicae) was 0.2 µg/mL (≈ 0.455 µM) and the LC50 (Laodelphax striatellus [1]) was 1 µg/mL (≈ 2.28 µM).

O=[N+]([O-])/C(CSCc1ccc(Cl)cc1)=C1\NCCN1Cc1ccc(Cl)nc1 gave an LC50 (Myzus persicae) of 0.8 µg/mL (≈ 1.88 µM) and an LC50 (Laodelphax striatellus [1]) of 0.14 µg/mL (≈ 0.329 µM).

Compound O=[N+]([O-])/C(CSCc1ccccc1)=C1\NCCN1Cc1ccc(Cl)nc1 has an LC50 (Myzus persicae) of 0.11 µg/mL (≈ 0.281 µM) and an LC50 (Laodelphax striatellus [1]) of 0.36 µg/mL (≈ 0.921 µM).

With CCOC(=O)CSC/C(=C1/NCCN1Cc1ccc(Cl)nc1)[N+](=O)[O-] the LC50 (Myzus persicae) was 0.1 µg/mL (≈ 0.258 µM) and the LC50 (Laodelphax striatellus [1]) was 0.3 µg/mL (≈ 0.775 µM).

O=[N+]([O-])/C(CSc1ccccc1)=C1\NCCN1Cc1ccc(Cl)nc1 gave an LC50 (Myzus persicae) of 0.34 µg/mL (≈ 0.902 µM) and an LC50 (Laodelphax striatellus [1]) of 0.11 µg/mL (≈ 0.292 µM).

Compound O=[N+]([O-])/C(CSCCCF)=C1\NCCN1Cc1ccc(Cl)nc1 has an LC50 (Myzus persicae) of 0.2 µg/mL (≈ 0.554 µM) and an LC50 (Laodelphax striatellus [1]) of 0.14 µg/mL (≈ 0.388 µM).

For CC#CCSC/C(=C1/NCCN1Cc1ccc(Cl)nc1)[N+](=O)[O-], the LC50 (Myzus persicae) was 0.25 µg/mL (≈ 0.709 µM) and the LC50 (Laodelphax striatellus [1]) was 0.3 µg/mL (≈ 0.85 µM).

With C=C(C)CSC/C(=C1/NCCN1Cc1ccc(Cl)nc1)[N+](=O)[O-] the LC50 (Myzus persicae) was 0.15 µg/mL (≈ 0.423 µM) and the LC50 (Laodelphax striatellus [1]) was < 0.05 µg/mL.

For C#CCSC/C(=C1/NCCN1Cc1ccc(Cl)nc1)[N+](=O)[O-], the LC50 (Myzus persicae) was 0.22 µg/mL (≈ 0.649 µM) and the LC50 (Laodelphax striatellus [1]) was < 0.05 µg/mL.

C=CCSC/C(=C1/NCCN1Cc1ccc(Cl)nc1)[N+](=O)[O-] showed an LC50 (Myzus persicae) of 0.1 µg/mL (≈ 0.293 µM), an LC50 (Laodelphax striatellus [1]) of 0.14 µg/mL (≈ 0.411 µM) and a mortality at 12.5 ppm (Laodelphax striatellus [6]) of 100%. It also gave a mortality at 3.1 ppm (Laodelphax striatellus [7]) of 30%, a pIC50 [2] of 4.69 and a mortality (Laodelphax striatellus [3]) of 0%. For the same compound, the LD50 at 336 h [4] was > 1000 mg/kg, the mortality at 3.1 ppm (Laodelphax striatellus [8]) was 100% and the mortality at 3.1 ppm (Laodelphax striatellus [9]) was 100%. For the same compound, the mortality at 12.5 ppm (Laodelphax striatellus [10]) was 100%, the mortality (Laodelphax striatellus [5]) was 30% and the mortality (Laodelphax striatellus [11]) was 100%. For the same compound, the mortality (Laodelphax striatellus [12]) was 80%, the mortality at 12.5 ppm (Laodelphax striatellus [13]) was 80% and the mortality at 12.5 ppm (Laodelphax striatellus [14]) was 100%. The mortality at 3.1 ppm (Laodelphax striatellus [15]) was 100%.

In the case of CC(C)(C)SC/C(=C1/NCCN1Cc1ccc(Cl)nc1)[N+](=O)[O-], the LC50 (Myzus persicae) was 0.2 µg/mL (≈ 0.56 µM) and the LC50 (Laodelphax striatellus [1]) was 0.43 µg/mL (≈ 1.2 µM).

With CCSC/C(=C1/NCCN1Cc1ccc(Cl)nc1)[N+](=O)[O-] the LC50 (Myzus persicae) was 0.18 µg/mL (≈ 0.547 µM) and the LC50 (Laodelphax striatellus [1]) was 0.41 µg/mL (≈ 1.25 µM).
